These results are taken from patent US20130202733A1, “ISOMALTULOSE FOR USE IN ENHANCING MENTAL PERFORMANCE” (SUEDZUCKER AKTIENGESELLSCHAFT MANNHEIM/OCHSENFURT, priority 2010, published 2013).

“Also recorded” adds a separate entry of the source.

Assay [1] deals with healthy school children. Kind of assay: Attention test (paradigm of Shakow, signal detection, error rate) after isomaltulose or glucose sweetened meal. The format is in vivo, human. The method, then:
(§1) Seventy-five healthy school children consumed in crossover design two meals designed to differ in their glycemic load (GL; Amount of carbohydrate×Glycemic Index, GI, of food items; GI of isomaltulose=32, GI of glucose=100) while being similar in macro-nutrient content. The cognitive test block takes 45 minutes and was once assessed in the early postprandial phase and once in the late post-prandial phase (>150 minutes) after meal ingestion. Every child participated in four blocks of testing (FIG. 2). • Early test block after meal A • Late test block after meal A • Early test block after meal B • Late test block after meal B
(§2) On each cognitive test block parallel versions of the cognitive tests were administered.
(§3) Both meals offered a similar intake of energy (1385 KJ) and macro-nutrients (84.4% carbohydrates, 10.6% protein and 5.0% fat) while differing in glycemic load (GL; Amount of carbohydrate×Glycemic Index of food items), that is whether glucose was released slowly or i quickly into the blood stream. The meals were composed as followed (% of total energy): • High GL meal: Cornflakes+milk (35.3%), yoghurt+fruit preparation (14.2%), glucose (50.5%). • Low GL meal: Cornflakes+milk (35.3%), yoghurt+fruit preparation (14.2%), isomaltulose (50.5%).
The paradigm of Shakow was used to assess attention with error rate as outcome (Shakow, Arch general Psychiat, 1962, 6, 1-17). […]

The next assay has as its system subjects. To be noted: at 150 minutes following ingestion; cited from earlier work.
The conditions of assay [2]: glucose standard = 100; cited from earlier work.
Assay [3] relates to healthy school children. Kind of assay: Episodic memory test (Recall of Objects, British Ability Scales) after isomaltulose or glucose sweetened meal. The format is in vivo, human. As for the experimental part: as §1, §2, §3
The approach was based on the Recall of Objects test of the British Ability Scales (Elliott, British Ability Scales, 1996, National foundation of Educational Research) and children had to recall up to 60 objects.

For a further assay, the system named is healthy adults. To be noted: milk-based drink; cited from earlier work.
For assay [4] the following is noted: after ingestion of 50 g; cited from earlier work.

Consider `OC[C@H]1O[C@H](OC[C@H]2OC(O)(CO)[C@@H](O)[C@@H]2O)[C@H](O)[C@@H](O)[C@@H]1O` (some centres unmarked) [isomaltulose], for which the “attention error rate, isomaltulose meal versus glucose meal” value with healthy school children [1] (early postprandial phase) is reported as “nearly the same attention error rate; also recorded: nearly the same error rates”. In addition, the “attention performance (error rate), isomaltulose meal versus glucose meal” value in the assay with healthy school children [1] (late postprandial phase, >150 minutes after meal ingestion) is given as “performed better by tendency; also recorded: trend for better attention performance”. For the same compound, the “cognitive performance tests versus sucrose-containing drinks” value in the assay on subjects is given as “performed significantly better”. Moreover, in assay [2], the “glycemic index (GI)” value is recorded as 32. The “episodic memory, isomaltulose meal versus glucose meal” value with healthy school children [3] (early postprandial phase (early cognitive test block)) is “did not differ”. For the same compound, the “episodic memory, isomaltulose meal versus glucose meal” value in the assay with healthy school children [3] (late postprandial phase, >150 minutes after meal consumption) is on record as “significantly better episodic memories”. In addition, the “episodic memory, late postprandial phase compared to early postprandial phase” value in the assay with healthy school children [3] (within the same meal) was “not significantly different”. Further, the “effect on cognitive performance” value in the assay with healthy adults is “does not affect cognitive performance”. Also, in assay [4], the “blood glucose or glycemic response curve versus sucrose” value is recorded as “much lower” and the “time after ingestion at which blood glucose approximates the initial levels” value is “about 2.5 hours”.

Turning to `OC[C@H]1O[C@@](CO)(O[C@H]2O[C@H](CO)[C@@H](O)[C@H](O)[C@H]2O)[C@@H](O)[C@@H]1O` [sucrose, reference compound], in assay [2], the “glycemic index (GI)” value is 65.
